This passage reports writhing inhibition results from patent US20240091295A1, “PIPER NIGRUM COMPOSITION AND METHOD OF TREATING PAIN” (priority 2022, published 2024).

For the assay, the system named is mice. The experiment in a line: Acetic acid-induced writhing test. It counts as in vivo. Conditions: 30 mg/kg i.p., vs control group. As to the method: Male Balb/c mice procured from the authorized animal supplier Biogen Laboratory Animal Facility, Bangalore, India were used for the animal experiments. The animals were housed in the animal facility of R&D Center, Vidya Herbs Pvt Ltd under controlled environmental conditions (temperature: 23±2° C., relative humidity: 35-50%, 12 h light/dark cycle). The animals were given commercial pellet diet and water ad libitum. All the animals were allowed to acclimatize to the environmental conditions before the start of experiments. The experimental protocols were approved by the Institutional Animal Ethics Committee (IAEC) of Vidya Herbs Pvt Ltd., Bangalore, India (VHPL/PCL/IAEC/01/2021).
Twenty-four male mice were randomized to four groups (n=6 in each group): Control group were given normal saline solution while positive control group received reference drug Diclofenac sodium (30 mg/kg). Two test doses of the inventive composition (25 and 50 mg/kg body weight) were used in the test. All the treatments were intraperitoneally injected. 30 min after the respective treatments, the animals were given 10 mL/kg body weight of 1% acetic acid intraperitoneally. The number of writhes were recorded after 10 min of acetic acid administration.
All the experimental data were analyzed by one way ANOVA followed by Tukey's multiple comparison test using GraphPad Prism 9.0 (GraphPad Software, Inc.). […]

In the case of `O=C(O)Cc1ccccc1Nc1c(Cl)cccc1Cl` [diclofenac sodium, Diclofenac sodium], the writhing inhibition amounted to 86.55%.
